In US20040092575A1, “Use of certain substituted pyrrolidones such as piracetam in the treatment of viral and other diseases” (priority 2001, published 2004):

Assays:
viral tilted peptide = assay: fusion process induced on LUV by the viral tilted peptide (analogues); conditions: at the doses tested
Text: The same in vitro study as in Example 1 was used to investigate two analogues (levetiracetam and (R)-(−)-alpha-ethyl-2-oxo-1-pyrrolidine acetamide) in comparison with piracetam.

acute viral hepatitis = assay: Effect of piracetam on patients exhibiting acute viral hepatitis; assay type: in vivo
Description: 110 patients with acute hepatitis, hospitalised from the first or the second week of icterus, were included in the study. All patients were assigned to rest, and received diet and vitamins.
A first group received piracetam at a daily dose of 2.4 g (3×0.8 g/day), a second group received no piracetam and acted as control group. The main parameters were serum bilirubine and transaminases, measured once a week during the whole icterus period.
Inclusion criteria were bilirubine ([…]) (N<0.3) and transaminases (>400 U) (N<40).
The criteria for a positive response were bilirubine <1.5 mg/dl and transaminases <100 U.

hepatitis C virus (HCV) = assay: Effect of piracetam on patients exhibiting chronic C virus hepatitis; assay type: in vivo
Text: 6 patients with chronic transfusion associated hepatitis C virus (HCV) received 6 months therapy with piracetam at a daily dose of 10.8 g (3×3.6 g/d) with no other treatment associated. This was followed by a 3 months period of no treatment. All patients, interferon non-responders, had chronic hepatitis from 6 to 19 years. The main criterion of efficacy was serum viral load (HCV-RNA) performed by polymerase chain reaction (PCR) at 0, 3, 6 and 9 months. These patients had manifested a gradual rise in their HCV-RNA. Thus, the criteria for no response was defined as no change in the increase of HCV-RNA, a positive response as a status quo of serum HVC-RNA and a significant response as a decrease of at least half a log of HCV-RNA.

[1] = tested on: A-201 cells devoid of CD4 receptors; assay: formation of syncitia by fusion of infected cells with uninfected neighbouring cells, A-201 cells; assay type: cell-based, HIV; conditions: no CD4 receptor, accordingly to the doses used
Text: (§1) HV has the property on cultured cells to provoke the formation of syncitia by fusion of infected cells with uninfected neighboring cells, when the virus ends its replication.
(§2) Virus have become remarkably opportunistic in exploring whatever complicated shapes they may find on the host cell surface as binding receptors (e.g. CD4, CXCR4, CCR5, CKR-5, CKR-3).
(§3) This study therefore investigated the ability of piracetam to inhibit the formation of syncitia, […], the primary binding receptor of HIV. For this purpose, two cultures of cells were used, A-201 cells devoid of CD4 receptors and SUP-Ti cells presenting CD4 receptors.

[2] = tested on: SUP-Ti cells presenting CD4 receptors; assay: formation of syncitia by fusion of infected cells with uninfected neighbouring cells, SUP-Ti cells; assay type: cell-based, HIV; conditions: CD4 receptor present, accordingly to the doses used
Text: as §1, §2, §3

[3] = target: T1, titled peptide of HUV-wt (wild type)(16 AA) (Human immunodeficiency virus type 1 group M subtype B, UniProt P04578); assay: fusion of large unilamellar vesicles (LUV) provoked by tilted peptide of HUV-wt; parameters: species or system HIV; conditions: at the doses tested
T1 construct: titled peptide of HUV-wt (wild type)(16 AA)

[4] = target: titled peptide of SIV-wt (12AA) (Simian immunodeficiency virus, UniProt P05885); assay: fusion of large unilamellar vesicles (LUV) provoked by tilted peptide of SIV-wt; conditions: at the doses tested
[5] = target: T2, Alzheimer's β-amyloid tilted peptide 29-40 (Homo sapiens, UniProt P05067); assay: fusion process induced by Alzheimer's β-amyloid tilted peptide 29-40 on membrane models; conditions: amyloid peptide 29-40
T2 construct: two Alzheimer's β-amyloid tilted peptides (29-40 and 29-42) on membrane models
Description: (§4) Four fundamental studies using different tools such as conformational analysis, biophysical methods, NMR and two-hybrid assay were carried out.

[6] = target: T3, Alzheimer's β-amyloid tilted peptide 29-42 (Homo sapiens, UniProt P05067); assay: fusion process induced by Alzheimer's β-amyloid tilted peptide 29-42 on membrane models; conditions: amyloid peptide 29-42
T3 construct: two Alzheimer's β-amyloid tilted peptides (29-40 and 29-42) on membrane models
Description: as §4

[7] = tested on: herpes simplex virus 1 (HSV1); conditions: Vero cells culture, in vitro; cited from earlier work
[8] = patients receiving piracetam from the first week of icterus
[9] = piracetam introduced after incubation of peptide with liposomes, whatever the dose
[10] = preincubation of piracetam before addition of the peptide

## CC[C@@H](C(N)=O)N1CCCC1=O [levetiracetam, (S)-α-ethyl-2-oxo-1-pyrrolidineacetamide]
Viral tilted peptide
  inhibitory effect on the fusion process induced on LUV: very clear inhibitory effect

## NC(=O)CN1CCCC1=O [piracetam, 2-oxo-pyrrolidineacetamide]
Acute viral hepatitis; acute hepatitis patients, 2.4 g daily (3×0.8 g/day)
  Clinical tolerance: excellent
Acute viral hepatitis; compared to the control group, except for 6 patients out of 49
  reduction of the icterus phase: 50%
Acute viral hepatitis; [8]
  evolution in serum bilirubine levels: positive evolution was especially observed
  evolution in serum transaminases: more pronounced
Acute viral hepatitis; patients receiving piracetam from the second week of icterus
  bilirubine levels: not significantly reduced
Acute viral hepatitis; patients receiving piracetam, 2.4 g daily
  evolution in serum transaminases: favourable, although non-significant
Acute viral hepatitis; piracetam group vs control group, 2.4 g daily, p<0.0003
  evolution in serum bilirubine levels: very highly significantly reduced
Hepatitis C virus (HCV); chronic HCV patients, 10.8 g daily (3×3.6 g/d), 6 months
  Clinical tolerance: excellent
Hepatitis C virus (HCV); four of 6 patients, PCR, 10.8 g daily
  change of serum HCV-RNA: decrease
Hepatitis C virus (HCV); the patient most recently infected (6 years), significant
  decrease of serum HCV-RNA: < 0.6 log
Hepatitis C virus (HCV); two of 6 patients, PCR, 10.8 g daily
  increase of serum HCV-RNA: < 10%
[1]
  inhibition of the formation of syncitia: inhibited
[2]
  inhibition of the formation of syncitia: inhibited
[3]
  inhibition of the fusion of LUV: inhibits the fusion of LUV
[4]
  inhibition of the fusion of LUV: inhibits the fusion of LUV
[5]; four studies overall
  inhibition of the fusion process on membrane models: inhibit the fusion process
[5]; [9]
  inhibition of the fusion process: not able to inhibit
[5]; [10]
  inhibition of the fusion process: inhibits almost completely
[6]; four studies overall
  inhibition of the fusion process on membrane models: inhibit the fusion process
[6]; [9]
  inhibition of the fusion process: not able to inhibit
[6]; [10]
  inhibition of the fusion process: inhibits almost completely
[7]
  ability to stop the replication of HSV1: stop the replication

## CC[C@H](C(N)=O)N1CCCC1=O [(R)-(−) alpha-ethyl-2-oxo-1-pyrrolidineacetamide]
Viral tilted peptide
  inhibitory effect on the fusion process induced on LUV: very clear inhibitory effect
